In US20020091095A1, “Modulation of Fas and FasL expression” (priority 1999, published 2002):

Experiments:
Format in all cases: cell-based, human
[1] = test system: Fas; assay: Fas expression at the cell surface by flow cytometry, PBMCs; conditions: 100 μg/ml sequence, 48 h, treated vs control cells
Description: Peripheral blood mononuclear cells (hereinafter, “PBMCs”) were isolated from human blood by Ficoll-Hypaque (Amersham Pharmacia Biotech, Baie d'Urfée, Québec, Canada) density gradient centrifugation.
(§1) Cancer cells and PBMCs were seeded in 6 well flat-bottom microplates and were maintained at 37° C. in a 5% CO2 atmosphere. Unless stated otherwise, 2×10^5 cells/ml were incubated for 48 h with 0 μg/ml (control) or 100 μg/ml ([…]) (treated) of the sequences.
(§2) Fas and FasL expression were measured by flow cytometry using anti-Fas FITC-conjugated monoclonal antibodies and anti-FasL PE-conjugated monoclonal antibodies in a FACScalibur Flow Cytometer (Becton Dickinson, San Jose, Calif., USA) using the CELLQuest program (Becton Dickinson).
(§3) Results are expressed as percentage (%) increase in the expression of Fas and of FasL measured on treated cells compared to control cells.

[2] = test system: Fas; assay: Fas expression at the cell surface by flow cytometry, T-24 cells; conditions: T-24 bladder cancer cells, 100 μg/ml sequence, 48 h, treated vs control cells
Description: as §1, §2, §3
T-24 bladder cancer cells are a p53 mutated human cell line T-24 cells (1.0×10^5 cells/ml) were incubated with the 6 base sequences shown in Table 4.

[3] = test system: Fas; assay: Fas expression at the cell surface by flow cytometry, UMUC-3 cells; conditions: UMUC-3 bladder cancer cells, 100 μg/ml sequence, 48 h, treated vs control cells
Description: as §1, §2, §3
(§4) UMUC-3 bladder cancer cells are a P-glycoprotein overexpressing human cell line.

[4] = test system: FasL; assay: FasL expression at the cell surface by flow cytometry, UMUC-3 cells; conditions: UMUC-3 bladder cancer cells, 100 μg/ml sequence, 48 h, treated vs control cells
Description: as §1, §2, §3, §4

[5] = test system: Fas; assay: Fas expression at the cell surface by flow cytometry, SK-OV-3 cells; conditions: SK-OV-3 ovarian cancer cells, 100 μg/ml sequence, 48 h, treated vs control cells
Description: as §1, §2, §3
(§5) SK-OV-3 ovarian cancer cells are a p53 mutated, p21/waf-1/Cip deleted, p15^ink4B,p16^ink4 deleted metastatic human solid tumor model.

[6] = test system: FasL; assay: FasL expression at the cell surface by flow cytometry, SK-OV-3 cells; conditions: SK-OV-3 ovarian cancer cells, 100 μg/ml sequence, 48 h, treated vs control cells
Description: as §1, §2, §3, §5

[7] = test system: Fas; assay: Fas expression at the cell surface by flow cytometry, LNCaP cells; conditions: LNCaP prostate cancer cells, 100 μg/ml sequence, 48 h, treated vs control cells
Description: as §1, §2, §3
(§6) LNCaP prostate cancer cells are a TGF-beta 1 receptor negative, […], metastatic human solid tumor model.

[8] = test system: FasL; assay: FasL expression at the cell surface by flow cytometry, LNCaP cells; conditions: LNCaP prostate cancer cells, 100 μg/ml sequence, 48 h, treated vs control cells
Description: as §1, §2, §3, §6

[9] = test system: Fas; assay: Fas expression at the cell surface by flow cytometry, MCF-7 cells; conditions: MCF-7 breast cancer cells, 100 μg/ml sequence, 48 h, treated vs control cells
Description: as §1, §2, §3
MCF-7 human breast cancer cells are a caspase-3 negative, estrogen-dependent human solid tumor model.

[10] = test system: Fas; assay: Inhibition of Fas expression on Jurkat cells by cycloheximide; conditions: for % INCREASE of Fas: Jurkat cells
Description: as §2, §3
Jurkat human leukemia T cells were pre-incubated with 0.0 μg/ml (−CHX) or with 0.1 μg/ml of cycloheximide (+CHX) for 1 h. Ten μg/ml or 100 μg/ml of 6 base SEQ ID NO:5 (GGGTGG) was added to both the −CHX and +CHX cells and the incubation was continued for 24 hours and for 48 hours (Table 10).

[11] = test system: UMUC-3 bladder cancer cells; assay: Inhibition of UMUC-3 bladder cancer cell proliferation (MTT reduction); conditions: for % INHIBITION of cell proliferation: UMUC-3, 48 h
Description: UMUC-3 bladder cancer cells were incubated for 48 hours with 0.00, 0.02 and 0.20 μg/ml of agonistic anti-Fas monoclonal antibodies (clone CH-11: Coulter-Immunotech, Marseille, France) +0 or 10 μg/ml of SEQ ID NO:5. Cell proliferation was measured using dimethylthiazol-diphenyltetrazolium (MTT) reduction (Mosman et al. J. Immunol. Methods 65:55, 1983). MTT was measured at a wavelength of 570 nm using a multiplate spectrophotometer reader (ELX800, Bio-TEK Instruments Inc., Winooski, Vt.).

**Q.** What does the source list for GGGTGG [SEQ ID NO:5]?
**A.** % INCREASE Fas [1]: 3%; % INCREASE Fas [2]: 80%; % INCREASE Fas [3]: 67%; % INCREASE FasL [4]: 143%; % INCREASE Fas [5]: 3%; % INCREASE FasL [6]: −31%; % INCREASE Fas [7]: 15%; % INCREASE FasL [8]: −1%; % INCREASE Fas [9]: 93%; Fas expression ([10]; Jurkat T cells, 10 or 100 μg/ml, 24 h and 48 h): upregulated Fas expression; % INCREASE of Fas ([10]; 10 μg/ml sequence, 24 h, +CHX (0.1 μg/ml cycloheximide)): 5%; % INCREASE of Fas ([10]; 10 μg/ml sequence, 24 h, −CHX): 63%; % INCREASE of Fas ([10]; 10 μg/ml sequence, 48 h, +CHX (0.1 μg/ml cycloheximide)): 51%; % INCREASE of Fas ([10]; 10 μg/ml sequence, 48 h, −CHX): 91%; % INCREASE of Fas ([10]; 100 μg/ml sequence, 24 h, +CHX (0.1 μg/ml cycloheximide)): 22%; % INCREASE of Fas ([10]; 100 μg/ml sequence, 24 h, −CHX): 62%; % INCREASE of Fas ([10]; 100 μg/ml sequence, 48 h, +CHX (0.1 μg/ml cycloheximide)): 115%; % INCREASE of Fas ([10]; 100 μg/ml sequence, 48 h, −CHX): 150%; effect on the inhibitory activity of agonistic anti-Fas antibodies on cell proliferation ([11]; UMUC-3, 0.02 and 0.2 μg/ml anti-Fas antibodies, 10 μg/ml sequence): potentiated; % INHIBITION of cell proliferation ([11]; 10 μg/ml sequence + anti-Fas antibodies 0.02 μg/ml): 38%; % INHIBITION of cell proliferation ([11]; 10 μg/ml sequence + anti-Fas antibodies 0.02 μg/ml (third column)): 44%; % INHIBITION of cell proliferation ([11]; 10 μg/ml sequence, anti-Fas antibodies 0.0 μg/ml): 23%
